US4855128A, “Saccharide inhibition of dental plaque” (priority 1988, dated 1989)
Read-outs that look alike come from different tables or passages of the source.

Test system: A. viscosus Tl4V-S. sanguis 34 coaggregation
Experiment: Coaggregation assay: inhibition of A. viscosus Tl4V-S. sanguis 34 coaggregation
Assay type: cell-based
Settings: for IC50: read-out: Concentration to effect 50% inhibition of coaggregation; for Inhibition of coaggregation (in words): qualitative; for Rebound of coaggregation on increasing concentration: at concentrations above the 50% inhibition concentration; for Concentration to effect 50% inhibition of coaggregation: concentration in % (weight/volume basis)
Description: This Example describes an assay for determining the inhibition of coaggregation by various agents according to the invention and the results obtained thereby.
Streptococcus sanguis strain 34 (originally derived from human dental plaque), and Actinomyces viscosus Tl4V were grown in a medium containing the dialyzable portion of Trypticase and Yeast Extract, supplemented with salts and a carbon source, as follows: A concentrated stock solution (20×, to make 10 liters of growth medium) containing Trypticase Peptone (BBL, 170 grams) and Yeast Extract (40 grams) as prepared in a liter of distilled water. This solution was subsequently ultrafiltered in an Amicon model DC-2 hollow fiber ultrafiltration cell, using an HlP10-20 hollow fiber cartridge (molecular weight cut off of 10,000 daltons), and the filtrate (that material of <10,000 daltons molecular weight) saved. The material was concentrated to a final volume of approximately 100 ml, and then reconstituted to one liter, after which the procedure was repeated for a total of three cycles, saving the filtrates at each step. The filtrates were collected into a vessel chilled on ice, combined, and the total volume measured. This stock solution was distributed in aliquots sufficient to make one liter of medium, and stored at -20° C. until used.
To prepare the growth medium, the appropriate volume of the 10× stock Trypticase-Yeast Extract stock solution was thawed, and to it added (in grams per liter): NaCl, 5, and K2 HPO4, 2.5, and the volume adjusted to 1 liter with distilled water. The medium was sterilized by autoclaving. Where indicated, glucose was added as a carbon source to give a final concentration of 0.2%. Initially, this was done by aseptically adding filter-sterilized glucose solutions to the autoclaved medium. For later experiments, glucose was added to the growth medium prior to sterilization.
Streptococci were grown in medium containing 0.2% glucose. Starter cultures were prepared by inoculation from a frozen stock culture, and incubated overnight at 37° C. under aerobic (not anaerobic) conditions. This starter culture was used as a 0.5-1.0% inoculum to inoculate larger quantities of medium (100 ml-1 liter), which were subsequently incubated for 16 hours at 37° C. Growth conditions were similar for the actinomycete, except that they were grown under an anaerobic environment (10% hydrogen-5% carbon dioxide, and 85% nitrogen). The starter culture was incubated for 24-48 hours, but the larger cultures required 48 hours incubation.
After growth, the cells were collected by centrifugation (10,000 x g, 15 minutes, 4° C.) and washed three times in PBS (phosphate-buffered saline, 0.025 M, pH 8.0 containing 1.46g NaCl per liter). The cells were then suspended in PBS such that when the stock cell suspension was diluted 1:10, it would produce an Absorbance at 660 nm of between 0.22-0.24, equivalent to an initial Absorbance of 2.2-2.4. The cells were stored on ice for use during the day, but warmed to ambient temperature before initiation of coaggregation. Residual cells were stored for further use by resuspension in a solution of 50% glycerol in water, and stored at 4° C. On the day of use, the cells were then collected by centrifugation, washed twice with PBS, and the trubidity adjusted as described above.
Assays were performed in a final volume of 1.0 ml in 190×75 mm disposable culture tubes, in duplicate. Controls consisted of 0.8 ml of either cell suspension, and 0.2 ml PBS. The coaggregating mixtures contained 0.4 ml of each cell suspension, and PBS to make 1.0 ml. Inhibitors were added from stock solutions to give the desired final concentrations, and, where necessary, the salt concentrations adjusted using a double-strength (2X) PBS solution. The mixtures were mixed on a Vortex mixer for 10 seconds at a speed setting of 6, incubated at ambient temperature for 10 minutes, vortexed again, and allowed to stand for 2 hours. […]

[1] = average of two independent experiments

| Compound | IC50 (Actinomyces viscosus, 2 h) | Concentration to effect 50% inhibition of coaggregation [1] | other results |
| --- | --- | --- | --- |
| OC[C@H]1OC(O)C[C@@H](O)[C@H]1O (stereo partly drawn) [2-deoxy-D-galactose, reference compound] | 20 mM |  |  |
| O=C[C@H](O)[C@@H](O)[C@H](O)[C@H](O)CO [Glucose, reference compound] | > 100 mM |  |  |
| Soluble starch [reference compound] |  |  | Inhibition of coaggregation at 1.0% (at 1.0%, average of two independent experiments): 8%; Inhibition of coaggregation (in words): poor inhibition |
| OC[C@H]1O[C@H](O[C@H]2[C@H](O)[C@@H](O)[C@H](O)O[C@@H]2CO)[C@H](O)[C@@H](O)[C@@H]1O [Maltose, reference compound] | > 100 mM |  |  |
| N[C@H]1C(O)O[C@H](CO)[C@H](O)[C@@H]1O (stereo partly shown) [Galactoseamine, reference compound] |  |  | IC50 (Table 1 carbohydrates, 2 hours, ambient temperature, average of independent experiments in duplicate (lactose n=13, galactose n=6)): 35 mM |
| O=C(O)[C@H](O)[C@@H](O)[C@H](O[C@@H]1O[C@H](CO)[C@H](O)[C@H](O)[C@H]1O)[C@H](O)CO [Lactobionic acid, 4-[beta-D-galactosido]-D-gluconic acid] | 3 to 4 mM |  | Rebound of coaggregation on increasing concentration: then rebounds; Rebound of coaggregation on increasing concentration (listed as lactobionic acid): rebound effect; Inhibition of coaggregation at the higher concentration (concentration increased up to 100 mM): 10% |
| OC[C@H]1O[C@@H](O[C@H]2[C@H](O)[C@@H](O)C(O)O[C@@H]2CO)[C@H](O)[C@@H](O)[C@H]1O (stereo partly shown) [Lactose, reference compound] | 3.6 mM |  |  |
| Polygalacturonic acid |  | 0.1% |  |
| OC[C@H]1O[C@@](CO)(O[C@H]2O[C@H](CO)[C@@H](O)[C@H](O)[C@H]2O)[C@@H](O)[C@@H]1O [Sucrose, reference compound] | > 100 mM |  |  |
| Chondroitin sulfate |  | 4% | Inhibition of coaggregation at 4% (at 4%): ~50%; Inhibition of coaggregation (in words): substantial inhibition |
| Sodium alginate |  |  | Inhibition of coaggregation at 0.5% (at 0.5%, average of two independent experiments): 32%; Inhibition of coaggregation (in words): substantial inhibition |
| OC[C@H]1O[C@@H](O[C@@H]2[C@@H](CO)OC(O)(CO)[C@H]2O)[C@H](O)[C@@H](O)[C@H]1O (mixture of isomers) [Lactulose, reference compound] | 35 mM |  |  |
| Pectin |  | 0.8% | Inhibition of coaggregation at 0.8% (at 0.8%): ~50%; Inhibition of coaggregation (in words): substantial inhibition |
| O=C[C@H](O)[C@@H](O)[C@H](O)[C@H](O)C(=O)O [Glucuronic acid] | 15 mM |  | Rebound of coaggregation on increasing concentration: then rebounds |
| Guar gum |  | 0.15% |  |
| O=C[C@@H](O)[C@@H](O)[C@H](O)[C@H](O)CO [Mannose, reference compound] | > 100 mM |  |  |
| C[C@H]1OC(O)[C@H](O)[C@@H](O)[C@H]1O (stereo partly drawn) [D-Fructose (6-deoxy-D-galactose), 6-deoxy-D-galactose, reference compound] | 20 mM |  |  |
| Agarose [reference compound] |  | > 0.2% | Inhibition of coaggregation (in words): did not demonstrate inhibition |
| O=C[C@H](O)[C@@H](O)[C@@H](O)[C@H](O)CO [Galactose, reference compound] | 22 mM |  |  |
| OC[C@H]1O[C@H](O[C@H]2O[C@H](CO)[C@@H](O)[C@H](O)[C@H]2O)[C@H](O)[C@@H](O)[C@@H]1O [Trehalose, reference compound] | > 100 mM |  |  |
| Agar [reference compound] |  | > 0.2% | Inhibition of coaggregation (in words): did not demonstrate inhibition |
| Xanthan gum |  | 0.05% |  |
